Laboratory results taken from PubChem BioAssay (NCI).
Converted amounts (≈) assume the structure as drawn.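 Where inhibition never reached the appropriate level, the endpoint shown equals the highest concentration tested. Otherwise, values were interpolated linearly from a five-concentration, 48-hour dose response in 96-well plates. Here, GI50 denotes the concentration required for 50% inhibition of growth. TGI denotes the concentration required for complete inhibition of growth.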 Non-standard residues stand in square brackets, D forms with d. Residues, ends and D or L forms follow the SMILES beside them. ξ: configuration not given here. *: point of attachment. Boc = CC(C)(C)OC(=O)*; ξV = CC(C)C(N)C(=O)O; OBn = c1ccc(CO*)cc1

Experiments:
Test in all cases: NCI anticancer screen, dose series, 48 h; in the data active means GI50 below about 0.43 µM; inactive means the rest
MDA-MB-231 breast = system: MDA-MB-231 breast
MCF7 breast = system: MCF7 breast
MDA-MB-435 = system: MDA-MB-435
HL-60(TB) leukemia = system: HL-60(TB) leukemia
MDA-N = system: MDA-N
CCRF-CEM leukemia = system: CCRF-CEM leukemia
HCC-2998 colon = system: HCC-2998 colon
KM12 colon = system: KM12 colon
786-0 renal = system: 786-0 renal
HS 578T breast = system: HS 578T breast
HCT-15 colon = system: HCT-15 colon
MOLT-4 leukemia = system: MOLT-4 leukemia
NCI-H522 lung = system: NCI-H522 lung
K-562 leukemia = system: K-562 leukemia
M14 melanoma = system: M14 melanoma
OVCAR-3 ovarian = system: OVCAR-3 ovarian
HCT-116 colon = system: HCT-116 colon
RPMI-8226 leukemia = system: RPMI-8226 leukemia
SK-MEL-2 melanoma = system: SK-MEL-2 melanoma
COLO 205 colon = system: COLO 205 colon
U251 CNS = system: U251 CNS
OVCAR-4 ovarian = system: OVCAR-4 ovarian
SW-620 colon = system: SW-620 colon
SN12C renal = system: SN12C renal
NCI-H23 lung = system: NCI-H23 lung
SK-OV-3 ovarian = system: SK-OV-3 ovarian
UO-31 renal = system: UO-31 renal
HT29 colon = system: HT29 colon
EKVX NSCLC = system: EKVX NSCLC
A498 renal = system: A498 renal
SK-MEL-5 melanoma = system: SK-MEL-5 melanoma
BT-549 breast = system: BT-549 breast
SF-295 CNS = system: SF-295 CNS
NCI-H460 lung = system: NCI-H460 lung
OVCAR-5 ovarian = system: OVCAR-5 ovarian
MALME-3M melanoma = system: MALME-3M melanoma
SF-268 CNS = system: SF-268 CNS
T-47D breast = system: T-47D breast
HOP-62 NSCLC = system: HOP-62 NSCLC
NCI/ADR-RES ovarian = system: NCI/ADR-RES ovarian
SR leukemia = system: SR leukemia
RXF 393 renal = system: RXF 393 renal
SK-MEL-28 melanoma = system: SK-MEL-28 melanoma
PC-3 prostate = system: PC-3 prostate
TK-10 renal = system: TK-10 renal
DU-145 prostate = system: DU-145 prostate
CAKI-1 renal = system: CAKI-1 renal
SF-539 CNS = system: SF-539 CNS
HOP-92 NSCLC = system: HOP-92 NSCLC
LOX IMVI melanoma = system: LOX IMVI melanoma
IGROV1 ovarian = system: IGROV1 ovarian
A549 NSCLC = system: A549 NSCLC
OVCAR-8 ovarian = system: OVCAR-8 ovarian
SNB-75 CNS = system: SNB-75 CNS
UACC-257 melanoma = system: UACC-257 melanoma
UACC-62 melanoma = system: UACC-62 melanoma
NCI-H226 lung = system: NCI-H226 lung
ACHN renal = system: ACHN renal
SNB-19 CNS = system: SNB-19 CNS

CC(C)C(NC(=O)OC(C)(C)C)C(=O)NCC(=O)OCc1ccccc1 (stereo not drawn) (Boc-[ξV]-Gly-OBn)
44.2 µg/mL: TGI (HL-60(TB) leukemia)
86.1 µg/mL: TGI (RPMI-8226 leukemia)
75.1 µg/mL: TGI (K-562 leukemia)
71.9 µg/mL: TGI (786-0 renal)
inactive: GI50 (MDA-MB-231 breast) 43 µg/mL | GI50 (MCF7 breast) 87 µg/mL | GI50 (MDA-MB-435) 44.5 µg/mL | GI50 (HL-60(TB) leukemia) 17.3 µg/mL | GI50 (MDA-N) 57.5 µg/mL (≈ 158 µM) | GI50 (CCRF-CEM leukemia) 0.594 µg/mL | GI50 (HCC-2998 colon) 48.2 µg/mL | GI50 (KM12 colon) 51.9 µg/mL | GI50 (786-0 renal) 24 µg/mL | GI50 (HS 578T breast) 98.2 µg/mL | GI50 (HCT-15 colon) 31.9 µg/mL | GI50 (MOLT-4 leukemia) 52.7 µg/mL | GI50 (NCI-H522 lung) 30 µg/mL | GI50 (K-562 leukemia) 18.3 µg/mL | GI50 (M14 melanoma) 35.9 µg/mL | GI50 (OVCAR-3 ovarian) 48.8 µg/mL | GI50 (HCT-116 colon) 22 µg/mL | GI50 (RPMI-8226 leukemia) 36.1 µg/mL | GI50 (SK-MEL-2 melanoma) 22.5 µg/mL | GI50 (COLO 205 colon) 19.7 µg/mL | GI50 (U251 CNS) 94.9 µg/mL
52.6 µg/mL: TGI (HCT-116 colon)
69.2 µg/mL: TGI (SK-MEL-2 melanoma)
30.8 µg/mL: TGI (CCRF-CEM leukemia)
40.9 µg/mL: TGI (COLO 205 colon)

COC(=O)C(C)NP(=O)(OCc1ccc(Cn2cnc3c(=O)[nH]c(N)nc32)cc1)Oc1ccccc1 (stereo not drawn)
inactive: GI50 (MDA-MB-231 breast) > 100 µM | GI50 (MCF7 breast) > 100 µM | GI50 (OVCAR-4 ovarian) > 100 µM | GI50 (SW-620 colon) > 100 µM | GI50 (SN12C renal) > 100 µM | GI50 (MDA-MB-435) > 100 µM | GI50 (NCI-H23 lung) > 100 µM | GI50 (HL-60(TB) leukemia) > 100 µM | GI50 (SK-OV-3 ovarian) > 100 µM | GI50 (UO-31 renal) > 100 µM | GI50 (HT29 colon) > 100 µM | GI50 (EKVX NSCLC) > 100 µM | GI50 (A498 renal) > 100 µM | GI50 (SK-MEL-5 melanoma) > 100 µM | GI50 (CCRF-CEM leukemia) > 100 µM | GI50 (HCC-2998 colon) > 100 µM | GI50 (BT-549 breast) > 100 µM | GI50 (SF-295 CNS) > 100 µM | GI50 (NCI-H460 lung) > 100 µM | GI50 (KM12 colon) > 100 µM | GI50 (OVCAR-5 ovarian) > 100 µM | GI50 (MALME-3M melanoma) > 100 µM | GI50 (786-0 renal) > 100 µM | GI50 (SF-268 CNS) > 100 µM | GI50 (T-47D breast) 34.6 µM | GI50 (HOP-62 NSCLC) > 100 µM | GI50 (NCI/ADR-RES ovarian) > 100 µM | GI50 (SR leukemia) > 100 µM | GI50 (RXF 393 renal) > 100 µM | GI50 (SK-MEL-28 melanoma) > 100 µM | GI50 (PC-3 prostate) > 100 µM | GI50 (HS 578T breast) > 100 µM | GI50 (HCT-15 colon) > 100 µM | GI50 (MOLT-4 leukemia) > 100 µM | GI50 (TK-10 renal) > 100 µM | GI50 (NCI-H522 lung) > 100 µM | GI50 (K-562 leukemia) > 100 µM | GI50 (M14 melanoma) > 100 µM | GI50 (OVCAR-3 ovarian) > 100 µM | GI50 (DU-145 prostate) > 100 µM | GI50 (CAKI-1 renal) > 100 µM | GI50 (SF-539 CNS) > 100 µM | GI50 (HOP-92 NSCLC) > 100 µM | GI50 (LOX IMVI melanoma) > 100 µM | GI50 (HCT-116 colon) > 100 µM | GI50 (IGROV1 ovarian) > 100 µM | GI50 (A549 NSCLC) > 100 µM | GI50 (RPMI-8226 leukemia) > 100 µM | GI50 (OVCAR-8 ovarian) > 100 µM | GI50 (SNB-75 CNS) > 100 µM | GI50 (UACC-257 melanoma) > 100 µM | GI50 (SK-MEL-2 melanoma) > 100 µM | GI50 (UACC-62 melanoma) > 100 µM | GI50 (COLO 205 colon) > 100 µM | GI50 (NCI-H226 lung) > 100 µM | GI50 (ACHN renal) > 100 µM | GI50 (SNB-19 CNS) > 100 µM | GI50 (U251 CNS) > 100 µM
> 100 µM: TGI (MDA-MB-231 breast) | TGI (MCF7 breast) | TGI (OVCAR-4 ovarian) | TGI (SW-620 colon) | TGI (SN12C renal) | TGI (MDA-MB-435) | TGI (NCI-H23 lung) | TGI (HL-60(TB) leukemia) | TGI (SK-OV-3 ovarian) | TGI (UO-31 renal) | TGI (HT29 colon) | TGI (EKVX NSCLC) | TGI (A498 renal) | TGI (SK-MEL-5 melanoma) | TGI (CCRF-CEM leukemia) | TGI (HCC-2998 colon) | TGI (BT-549 breast) | TGI (SF-295 CNS) | TGI (NCI-H460 lung) | TGI (KM12 colon) | TGI (OVCAR-5 ovarian) | TGI (MALME-3M melanoma) | TGI (786-0 renal) | TGI (SF-268 CNS) | TGI (T-47D breast) | TGI (HOP-62 NSCLC) | TGI (NCI/ADR-RES ovarian) | TGI (SR leukemia) | TGI (RXF 393 renal) | TGI (SK-MEL-28 melanoma) | TGI (PC-3 prostate) | TGI (HS 578T breast) | TGI (HCT-15 colon) | TGI (MOLT-4 leukemia) | TGI (TK-10 renal) | TGI (NCI-H522 lung) | TGI (K-562 leukemia) | TGI (M14 melanoma) | TGI (OVCAR-3 ovarian) | TGI (DU-145 prostate) | TGI (CAKI-1 renal) | TGI (SF-539 CNS) | TGI (HOP-92 NSCLC) | TGI (LOX IMVI melanoma) | TGI (HCT-116 colon) | TGI (IGROV1 ovarian) | TGI (A549 NSCLC) | TGI (RPMI-8226 leukemia) | TGI (OVCAR-8 ovarian) | TGI (SNB-75 CNS) | TGI (UACC-257 melanoma) | TGI (SK-MEL-2 melanoma) | TGI (UACC-62 melanoma) | TGI (COLO 205 colon) | TGI (NCI-H226 lung) | TGI (ACHN renal) | TGI (SNB-19 CNS) | TGI (U251 CNS)

O=C1c2ccccc2-c2nc3ccc(O)cc3n21
> 100 µM: TGI (MCF7 breast) | TGI (OVCAR-4 ovarian) | TGI (SW-620 colon) | TGI (SN12C renal) | TGI (NCI-H23 lung) | TGI (HL-60(TB) leukemia) | TGI (MDA-N) | TGI (SK-OV-3 ovarian) | TGI (UO-31 renal) | TGI (HT29 colon) | TGI (EKVX NSCLC) | TGI (SK-MEL-5 melanoma) | TGI (CCRF-CEM leukemia) | TGI (HCC-2998 colon) | TGI (BT-549 breast) | TGI (SF-295 CNS) | TGI (NCI-H460 lung) | TGI (KM12 colon) | TGI (OVCAR-5 ovarian) | TGI (MALME-3M melanoma) | TGI (786-0 renal) | TGI (SF-268 CNS) | TGI (HOP-62 NSCLC) | TGI (NCI/ADR-RES ovarian) | TGI (SR leukemia) | TGI (RXF 393 renal) | TGI (SK-MEL-28 melanoma) | TGI (PC-3 prostate) | TGI (HCT-15 colon) | TGI (MOLT-4 leukemia) | TGI (TK-10 renal) | TGI (NCI-H522 lung) | TGI (K-562 leukemia) | TGI (M14 melanoma) | TGI (OVCAR-3 ovarian) | TGI (DU-145 prostate) | TGI (CAKI-1 renal) | TGI (SF-539 CNS) | TGI (HOP-92 NSCLC) | TGI (HCT-116 colon) | TGI (IGROV1 ovarian) | TGI (A549 NSCLC) | TGI (RPMI-8226 leukemia) | TGI (OVCAR-8 ovarian) | TGI (SNB-75 CNS) | TGI (UACC-257 melanoma) | TGI (SK-MEL-2 melanoma) | TGI (UACC-62 melanoma) | TGI (COLO 205 colon) | TGI (NCI-H226 lung) | TGI (ACHN renal) | TGI (SNB-19 CNS) | TGI (U251 CNS)
